Results reported in patent US7517658B2, “Methods for preparing compositions using a SNORF33 receptor” (H. Lundbeck A/S, priority 1999, dated 2009).
Values joined by “and” are separate entries in the source; they are usually repeats but may differ in a detail not shown here. Equal entries are not always repeated. Where two headings read alike, the source gives them in different places.

Legend:
[1] = biological target: T1, rSNORF33 (Rattus norvegicus, UniProt Q923Y9); test: Cl- currents in Xenopus oocytes expressing rSNORF33 and CFTR (voltage clamp); type: cell-based; conditions: test compound 100 μM except where noted; 100 nM TYR
T1 sequence (Q923Y9 whole entry): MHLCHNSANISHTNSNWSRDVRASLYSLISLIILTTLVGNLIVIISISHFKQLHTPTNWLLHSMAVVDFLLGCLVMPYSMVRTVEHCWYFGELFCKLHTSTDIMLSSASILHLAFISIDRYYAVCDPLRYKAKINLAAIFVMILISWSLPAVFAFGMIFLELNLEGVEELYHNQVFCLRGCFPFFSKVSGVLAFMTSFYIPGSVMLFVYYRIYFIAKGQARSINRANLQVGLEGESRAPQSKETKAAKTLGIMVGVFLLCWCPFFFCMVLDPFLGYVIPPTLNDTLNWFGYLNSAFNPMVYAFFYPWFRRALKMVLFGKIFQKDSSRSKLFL

[2] = biological target: T2, mouse SNORF33 (Mus musculus, UniProt Q923Y8); test: [3H]-TYR binding (saturation and displacement) to mouse SNORF33 COS-7 membranes; conditions: for Ki: mouse SNORF33, displacement of [3H]TYR, n=2, read-out: Average Ki
T2 construct: expressed in transfected cells; host or cells: COS-7 (membranes)
T2 sequence (Q923Y8 whole entry): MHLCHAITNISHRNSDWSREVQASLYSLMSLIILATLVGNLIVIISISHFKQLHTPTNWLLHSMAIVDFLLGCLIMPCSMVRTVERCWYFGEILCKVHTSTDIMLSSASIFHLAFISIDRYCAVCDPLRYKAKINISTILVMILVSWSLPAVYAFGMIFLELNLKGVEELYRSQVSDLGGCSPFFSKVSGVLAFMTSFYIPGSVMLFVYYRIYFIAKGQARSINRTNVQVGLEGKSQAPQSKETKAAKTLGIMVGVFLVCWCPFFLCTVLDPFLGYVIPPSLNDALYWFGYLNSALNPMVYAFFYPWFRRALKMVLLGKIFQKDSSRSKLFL
Procedure: (§1) [^3H]-TYR and [^3H]-T binding assays were performed essentially as described by Mallard et al. (1992), with minor modifications. Radioligand binding assays were performed by diluting membranes prepared from cells expressing the receptor (with co-expression of the rat G-protein alpha S subunit for human SNORF33) in 25 mM Gly-Gly buffer (Sigma, pH=7.4 @ 0° C.) containing 5 mM ascorbate and 10 μM pargyline (final protein concentration in assay=100-300 μg/ml). Membranes were then incubated with either [^3H]-TYR (American Radiochemicals, specific activity 60 mCi/μmole) or [^3H]-T (Amersham, specific activity 98 mCi/μmole) in the presence or absence of competing ligands on ice for 30 min in a total volume of 250 μl in 96 well microtiter plates. The bound ligand was separated from free by filtration through GF/B filters presoaked in 0.5% polyethyleneimine (PEI), using Tomtec (Wallac) or Brandel Cell Harvester vacuum filtration device. After addition of Ready Safe (Beckman) scintillation fluid, bound radioactivity was quantitated using a Trilux (Wallac) scintillation counter (approximately 20% counting efficiency of bound counts). Data was fit to non-linear curves using GraphPad Prism.
(§2) In this manner, agonist or antagonist compounds that bind to the receptor may be identified as they inhibit the binding of the labeled ligand to the membrane protein of cells expressing the said receptor. Non-specific binding was defined as the amount of radioactivity remaining after incubation of membrane protein in the presence of 10 μM of the unlabeled amine corresponding to the radioligand used. In equilibrium saturation binding assays, membrane preparations or intact cells transfected with the receptor are incubated in the presence of increasing concentrations of the labeled compound to determine the binding affinity of the labeled ligand. The binding affinities of unlabeled compounds may be determined in equilibrium competition binding assays, using a fixed concentration of labeled compound in the presence of varying concentrations of the displacing ligands.

[3] = biological target: T3, hSNORF33 (Homo sapiens, UniProt Q96RJ0); test: [3H]-TYR binding (saturation and displacement) to human SNORF33 COS-7 membranes; set-up: expressed in transfected cells; host or cells: COS-7 (membranes); conditions: for Ki: human SNORF33 in transfected COS-7 membranes
T3 sequence (Q96RJ0 1-339): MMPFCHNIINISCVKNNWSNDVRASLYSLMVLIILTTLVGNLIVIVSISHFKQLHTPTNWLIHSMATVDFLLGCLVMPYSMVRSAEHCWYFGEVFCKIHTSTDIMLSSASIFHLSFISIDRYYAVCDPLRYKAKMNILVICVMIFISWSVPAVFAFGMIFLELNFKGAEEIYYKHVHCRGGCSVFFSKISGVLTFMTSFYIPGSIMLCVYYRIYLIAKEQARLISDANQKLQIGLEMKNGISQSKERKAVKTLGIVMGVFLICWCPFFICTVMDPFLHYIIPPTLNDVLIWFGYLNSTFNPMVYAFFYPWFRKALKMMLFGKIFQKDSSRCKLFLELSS
Procedure: as §1, §2

[4] = biological target: T1, rSNORF33; test: [3H]-TYR binding (saturation and displacement) to rSNORF33-transfected COS-7 membranes; set-up: expressed in transfected cells; host or cells: COS-7 (transient); conditions: for Ki: rSNORF33 in transfected COS-7 membranes, 2–4 experiments, read-out: Mean Ki ± S.D.M., displacement of [3H]-tyramine
Procedure: as §1, with “Radioligand” for “[^3H]-TYR and [^3H]-T binding assays were performed essentially as described by Mallard et al. (1992), with minor modifications. Radioligand”
as §2

[5] = biological target: T1, rSNORF33; test: Cl- currents in Xenopus oocytes expressing rSNORF33 and CFTR (voltage clamp); type: cell-based; conditions: for Cl- currents elicited: at 100 μM
Procedure: Female Xenopus laevis (Xenopus-1, Ann Arbor, Mich.) were anesthetized in 0.2% tricain (3-aminobenzoic acid ethyl ester, Sigma Chemical Corp.) and a portion of ovary was removed using aseptic technique (Quick and Lester, 1994). Oocytes were defolliculated, using 3 mg/ml collagenase (Worthington Biochemical Corp., Freehold, N.J.) in a solution containing 82.5 mM NaCl, 2 mM KCl, 1 mM MgCl2 and 5 mM HEPES, pH 7.5, and injected (Nanoject, Drummond Scientific, Broomall, Pa.) 24 h later with 50-70 nl of individual mRNAs or mRNA mixtures (see below).
Elevation of intracellular cAMP is monitored in oocytes by expression of the cystic fibrosis transmembrane conductance regulator (CFTR) whose Cl^−-selective pore opens in response to phosphorylation by protein kinase A (Riordan, 1993). To prepare RNA transcripts for expression in oocytes, a template was created by PCR using 5′ and 3′ primers derived from the published sequence of the CFTR gene (Riordan, 1993). The 5′ primer included the sequence coding for T7 polymerase so that transcripts could be generated directly from the PCR products without cloning. Oocytes were injected with 10 ng of CFTR mRNA in addition to 10-15 ng mRNA for SNORF33. Electrophysiological recordings were made after a 2-3 day incubation at 18° C.
Dual electrode voltage clamp (“GeneClamp”, Axon Instruments Inc., Foster City, Calif.) was performed using 3 M KCl-filled glass microelectrodes having resistances of 1-3 Mohms. Unless otherwise specified, oocytes were voltage clamped at a holding potential of −80 mV. During recordings, oocytes were bathed in continuously flowing (1-3 ml/min) medium containing 96 mM NaCl, 2 mM KCl, 1.8 mM CaCl2, 1 mM MgCl2, and 5 mM HEPES, pH 7.5 (ND96). […] Experiments were carried out at room temperature. All values are expressed as mean±standard error of the mean.

[6] = biological target: T1, rSNORF33; test: Intracellular cAMP release in rSNORF33-transfected COS-7 cells; type: cell-based; set-up: expressed in transfected cells; host or cells: COS-7 (transient); conditions: for Agonist activity at cloned rSNORF33 receptor: data not shown
Procedure: The receptor-mediated stimulation or inhibition of cyclic AMP (cAMP) formation may be assayed in cells expressing the mammalian receptors. Cells are plated in 96-well plates or other vessels and preincubated in a buffer such as HEPES buffered saline (NaCl (150 mM), CaCl2 (1 mM), KCl (5 mM), glucose (10 mM)) supplemented with a phosphodiesterase inhibitor such as 5 mM theophylline, with or without protease inhibitor cocktail (For example, a typical inhibitor cocktail contains 2 μg/ml aprotinin, […] leupeptin, and 10 μg/ml phosphoramidon.) for 20 min at 37° C., in 5% CO2. Test compounds are added with or without […] forskolin and incubated for an additional 10 min at 37° C. The medium is then aspirated and the reaction stopped by the addition of 100 mM HCl or other methods. The plates are stored at 4° C. for 15 min, and the cAMP content in the stopping solution is measured by radioimmunoassay. Radioactivity may be quantified using a gamma counter equipped with data reduction software. Specific modifications may be performed to optimize the assay for the receptor or to alter the detection method of cAMP.
COS-7 cells were transiently transfected with rSNORF33 gene using the calcium phosphate method and plated in 96-well plates. 48 hours after transfection, cells were washed twice with Dulbecco's phosphate buffered saline (PBS) supplemented with 10 mM HEPES, 10 mM glucose, 5 mM theophylline and 10 μM pargyline and were incubated in the same buffer for 20 min at 37° C., in […] 5% CO2. Test compounds were added and cells were incubated for an additional 10 min at 37° C. The medium was then aspirated and the reaction stopped by the addition of 100 mM HCl. The plates were stored at −20° C. for 2-5 days. For cAMP measurement, plates were thawed and the cAMP content in each well was measured by radioimmunoassay cAMP Scintillation Proximity Assay (Amersham Pharmacia Biotech). Radioactivity was quantified using microbeta Trilux counter (Wallac).

[7] = transiently transfected COS-7 cells, 3–8 experiments, read-out: Mean EC50 ± S.E.M., stimulation of rSNORF33 measured by intracellular cAMP release
[8] = read-out: Ki, displacement of [3H]-tyramine
[9] = read-out: Mean Ki ± S.D.M., displacement of [3H]-tyramine

CN1C[C@H](CNC(=O)OCc2ccccc2)C[C@@H]2c3cccc4c3c(cn4C)C[C@H]21 [metergoline]
Antagonism of TYR stimulation of rSNORF33 [1]: significantly block

NCCc1ccc(O)cc1 [[^3H]-TYR]
Specific binding as % of total binding ([2]; at about 15 nM [3H]-TYR, mouse SNORF33): approximately 94%
Bmax, saturation binding ([2]; mouse SNORF33 membranes): 1090 fmol/mg protein and 848 fmol/mg protein
Specific binding as % of total binding ([3]; at about 15 nM [3H]-TYR, human SNORF33): ~70%
Bmax, saturation binding ([3]; human SNORF33 membranes): 440 fmol/mg protein and 603 fmol/mg protein
Specific binding ([4]; 20 nM radioligand, rSNORF33): 90%
Bmax, saturation binding ([4]; rSNORF33 COS-7 membranes, n=2): 1400 fmol/mg protein and 1164 fmol/mg protein
Kd ([4]; rSNORF33 COS-7 membranes, n=2): 12.5 nM and 14.8 nM

NCCc1ccc(O)c(O)c1 [Dopamine (DA), Dopamine]
Cl- currents elicited [5]: more weakly

CC(C)NCC(O)COc1cccc2[nH]ccc12 (stereo not drawn) [pindolol]
Antagonism of TYR stimulation of rSNORF33 [1]: significantly block

Cc1ccc2[nH]cc(CCN)c2c1 [5-Methyl-Tryptamine]
EC50 [6, 7]: 752 ± 285 nM

NCCc1c[nH]c2ccc(F)cc12 [5-Fluoro-Tryptamine]
EC50 [6, 7]: 232 ± 38 nM

C1CNCCN1 [piperazine]
Ki [2]: 1950 nM
Ki [3, 8]: > 10000 nM
Ki [4]: 82 nM

NCCc1cccc(O)c1 [3-OH-PEA]
Ki [3, 9]: 79 ± 16 nM
Ki [4]: 529 ± 236 nM

Cc1ccc(N(CC2=NCCN2)c2cccc(O)c2)cc1 [phentolamine]
Antagonism of TYR stimulation of rSNORF33 [1]: agonist effect

COC(=O)[C@H]1[C@H]2C[C@H]3c4[nH]c5ccccc5c4CCN3C[C@H]2CC[C@@H]1O [rauwolscine]
Antagonism of TYR stimulation of rSNORF33 [1]: did not significantly inhibit

CC(COc1ccccc1)N(CCCl)Cc1ccccc1 (stereo not drawn) [Phenoxybenzamine]
Antagonism of TYR stimulation of rSNORF33 [1]: irreversible inhibition

NC[C@H](O)c1ccc(O)c(O)c1 [NE, norepinephrine]
Agonist activity at cloned rSNORF33 receptor [6]: inactive

CNCCCN1c2ccccc2CCc2ccccc21 [Desipramine]
EC50 [6, 7]: 4300 ± 1870 nM

c1ccc(C2CC2)c(OCC2=NCCN2)c1 [cirazoline]
Inhibition of the response to TYR ([5]; test compound 100 μM except where noted, 100 nM TYR (EC80)): greater than 90%

NCCC(=O)c1ccccc1N [Kynuramine]
Ki [3, 9]: 1390 ± 810 nM
Ki [4]: 485 ± 9 nM
EC50 [6, 7]: 90 ± 20 nM

COC(=O)[C@@H]1[C@H]2C[C@H]3c4[nH]c5ccccc5c4CCN3C[C@@H]2CC[C@@H]1O [yohimbine]
Antagonism of TYR stimulation of rSNORF33 [1]: did not significantly inhibit

Cl.Cl.Clc1cccc(N2CCNCC2)c1 [m-CPP, 1-(3-chlorophenyl)piperazine dihydrochloride]
Ki [2]: 3550 nM
Displacement of [3H]TYR binding ([3]; human SNORF33, up to 10 μM): no displacement
Ki [3, 8]: > 10000 nM
Ki [4]: 83 nM

NCCc1c[nH]cn1 [histamine]
Agonist activity at cloned rSNORF33 receptor [6]: inactive

NCCc1c[nH]c2ccc(O)cc12 [Serotonin (5-HT), 5-Hydroxytryptamine]
Cl- currents elicited [5]: more weakly
EC50 ([5]; oocytes expressing rSNORF33 and CFTR, -80 mV, mean ± S.E.M., read-out: Calculated EC50, Cl- current): 3776 ± 3.17 nM
Ki [4]: 976 ± 120 nM
Fold less potent than the three trace amines (TYR, PEA, T) in activating rSNORF33 ([6]; cAMP assay): 70 fold
EC50 [6, 7]: 1240 ± 526 nM

CC(N)C(O)c1ccccc1 (stereo not drawn) [Phenylpropanolamine (PPA), Phenylpropanolamine]
EC50 [6]: 1800 ± 1380 nM

CC(C)NCC(O)COc1cccc2ccccc12 (stereo not drawn) [propanolol]
Antagonism of TYR stimulation of rSNORF33 [1]: significantly block

CN[C@@H](C)Cc1ccccc1 [Methamphetamine]
Ki [3, 9]: 189 ± 102 nM
Ki [4]: 391 ± 246 nM
EC50 [6, 7]: 115 ± 66 nM

CN1CCN2c3ccccc3Cc3ccccc3C2C1 (stereo not drawn) [mianserin]
Antagonism of TYR stimulation of rSNORF33 [1]: did not significantly inhibit

COc1ccc2[nH]cc(CCN)c2c1 [5-Methoxy-Tryptamine]
Ki [4]: 209 ± 68 nM
EC50 [6, 7]: 414 ± 161 nM
